Paper PMC12377202, “Design, synthesis, and cytotoxic evaluation of quinazoline-based derivatives as VEGER-2 inhibitors: comparative study against EGFR kinase activity, induction of apoptosis, and molecular docking study” (RSC Advances, 2025)

Key:
Type in all cases: cell-based, human
MCF-7 = test: MTT anti-proliferative assay, MCF-7; conditions: Homo sapiens, MCF7; for viability at 0.195 µmol / cytotoxicity at 0.195 µmol: MCF-7, 0.195 umol; for cytotoxicity at 0.195 µmol / cytotoxicity at 0.391 µmol / cytotoxicity at 0.781 µmol / cytotoxicity at 1.563 µmol / cytotoxicity at 3.125 µmol / cytotoxicity at 6.25 µmol / cytotoxicity at 12.5 µmol / cytotoxicity at 25 µmol: read-out: Toxicity %; for viability at 0.391 µmol / cytotoxicity at 0.391 µmol: MCF-7, 0.391 umol; for viability at 0.781 µmol / cytotoxicity at 0.781 µmol: MCF-7, 0.781 umol; for viability at 1.563 µmol / cytotoxicity at 1.563 µmol: MCF-7, 1.563 umol; for viability at 3.125 µmol / cytotoxicity at 3.125 µmol: MCF-7, 3.125 umol; for viability at 6.25 µmol / cytotoxicity at 6.25 µmol: MCF-7, 6.25 umol; for viability at 12.5 µmol / cytotoxicity at 12.5 µmol: MCF-7, 12.5 umol; for viability at 25 µmol / cytotoxicity at 25 µmol: MCF-7, 25 umol; for IC50: MTT, MCF-7, read-out: Cytotoxicity against cancer cells IC50 MCF-7
HepG-2 = test: MTT anti-proliferative assay, HepG-2; conditions: Homo sapiens, HepG2; for viability at 0.195 µg/mL / cytotoxicity at 0.195 µg/mL: HepG-2, 0.195 ug/ml; for cytotoxicity at 0.195 µg/mL / cytotoxicity at 0.391 µg/mL / cytotoxicity at 0.781 µg/mL / cytotoxicity at 1.563 µg/mL / cytotoxicity at 3.125 µg/mL / cytotoxicity at 6.25 µg/mL / cytotoxicity at 12.5 µg/mL / cytotoxicity at 25 µg/mL: read-out: Toxicity %; for viability at 0.391 µg/mL / cytotoxicity at 0.391 µg/mL: HepG-2, 0.391 ug/ml; for viability at 0.781 µg/mL / cytotoxicity at 0.781 µg/mL: HepG-2, 0.781 ug/ml; for viability at 1.563 µg/mL / cytotoxicity at 1.563 µg/mL: HepG-2, 1.563 ug/ml; for viability at 3.125 µg/mL / cytotoxicity at 3.125 µg/mL: HepG-2, 3.125 ug/ml; for viability at 6.25 µg/mL / cytotoxicity at 6.25 µg/mL: HepG-2, 6.25 ug/ml; for viability at 12.5 µg/mL / cytotoxicity at 12.5 µg/mL: HepG-2, 12.5 ug/ml; for viability at 25 µg/mL / cytotoxicity at 25 µg/mL: HepG-2, 25 ug/ml; for IC50: MTT, HepG-2, read-out: Cytotoxicity against cancer cells IC50 HepG-2
K-562 = test: MTT anti-proliferative assay, K-562; conditions: Homo sapiens, K562; for viability at 0.195 µmol / cytotoxicity at 0.195 µmol: K-562, 0.195 umol; for cytotoxicity at 0.195 µmol / cytotoxicity at 0.391 µmol / cytotoxicity at 0.781 µmol / cytotoxicity at 1.563 µmol / cytotoxicity at 3.125 µmol / cytotoxicity at 6.25 µmol / cytotoxicity at 12.5 µmol / cytotoxicity at 25 µmol: read-out: Toxicity %; for viability at 0.391 µmol / cytotoxicity at 0.391 µmol: K-562, 0.391 umol; for viability at 0.781 µmol / cytotoxicity at 0.781 µmol: K-562, 0.781 umol; for viability at 1.563 µmol / cytotoxicity at 1.563 µmol: K-562, 1.563 umol; for viability at 3.125 µmol / cytotoxicity at 3.125 µmol: K-562, 3.125 umol; for viability at 6.25 µmol / cytotoxicity at 6.25 µmol: K-562, 6.25 umol; for viability at 12.5 µmol / cytotoxicity at 12.5 µmol: K-562, 12.5 umol; for viability at 25 µmol / cytotoxicity at 25 µmol: K-562, 25 umol; for IC50: MTT, K-562, read-out: Cytotoxicity against cancer cells IC50 K-562
caspase-3 = test: Caspase-3 expression level in HepG-2 cells; conditions: for Caspase-3 ± SE: HepG-2, at IC50 concentrations, control 0.460; for caspase-3 expression level, fold increase: HepG-2, vs control cells
Procedure: (§1) All synthesized compounds were tested at their cytotoxic concentrations in HepG-2 cells for analysis of gene expression levels of apoptotic markers caspase-3, caspase-9, TNF-α, and IL-6 proteins, and only two active compounds were tested for BAX and Bcl-2 proteins.
(§2) through Flow cytometric analysis.
(§3) Pellets were collected again and incubated with
(§4) Total RNA from vehicle-treated
(§5) (Thermo Scientific, USA).
(§6) All experiments were performed in […]

caspase-9 = test: Caspase-9 expression level in HepG-2 cells; conditions: for Caspase-9 ± SE: HepG-2, at IC50 concentrations, control 11.01; for caspase-9 expression level, fold increase: HepG-2, vs control cells
Procedure: as §1, §2, §3, §4, §5, §6

TNF-alpha = TNF-alpha level in HepG-2 cells; conditions: control 43.48
Procedure: as §1, §2, §3, §4, §5, §6

IL-6R = IL-6R level in HepG-2 cells; conditions: for IL-6R ± SE: HepG-2, at IC50 concentrations; for IL-6R ± SE / IL-6 ±SE: control 44.10; for IL-6 ±SE: raw data, HepG2
Procedure: as §1, §2, §3, §4, §5, §6

O=C(Cn1cnc2cc([N+](=O)[O-])ccc2c1=O)Nc1ccc(Cl)cc1 [9c, N-(4-Chlorophenyl)-2-(7-nitro-4-oxoquinazolin-3(4H)-yl)acetamide]
viability at 0.195 µmol (MCF-7): 91.3% | cytotoxicity at 0.195 µmol (MCF-7): 8.66% | viability at 0.391 µmol (MCF-7): 68.1% | cytotoxicity at 0.391 µmol (MCF-7): 31.9% | viability at 0.781 µmol (MCF-7): 43% | cytotoxicity at 0.781 µmol (MCF-7): 57% | viability at 1.563 µmol (MCF-7): 27.7% | cytotoxicity at 1.563 µmol (MCF-7): 72.3% | viability at 3.125 µmol (MCF-7): 15.2% | cytotoxicity at 3.125 µmol (MCF-7): 84.8% | viability at 6.25 µmol (MCF-7): 11.2% | cytotoxicity at 6.25 µmol (MCF-7): 88.8% | viability at 12.5 µmol (MCF-7): 8.44% | cytotoxicity at 12.5 µmol (MCF-7): 91.6% | viability at 25 µmol (MCF-7): 6.82% | cytotoxicity at 25 µmol (MCF-7): 93.2% | IC50 (MCF-7): 672.4 ± 4.9 nM | viability at 0.195 µg/mL (HepG-2): 83.4% | cytotoxicity at 0.195 µg/mL (HepG-2): 16.6% | viability at 0.391 µg/mL (HepG-2): 70.3% | cytotoxicity at 0.391 µg/mL (HepG-2): 29.7% | viability at 0.781 µg/mL (HepG-2): 56.1% | cytotoxicity at 0.781 µg/mL (HepG-2): 43.9% | viability at 1.563 µg/mL (HepG-2): 34.4% | cytotoxicity at 1.563 µg/mL (HepG-2): 65.6% | viability at 3.125 µg/mL (HepG-2): 16.8% | cytotoxicity at 3.125 µg/mL (HepG-2): 83.2% | viability at 6.25 µg/mL (HepG-2): 11.7% | cytotoxicity at 6.25 µg/mL (HepG-2): 88.3% | viability at 12.5 µg/mL (HepG-2): 7.36% | cytotoxicity at 12.5 µg/mL (HepG-2): 92.6% | viability at 25 µg/mL (HepG-2): 6.23% | cytotoxicity at 25 µg/mL (HepG-2): 93.8% | IC50 (HepG-2): 1000 ± 4.9 nM | viability at 0.195 µmol (K-562): 80.6% | cytotoxicity at 0.195 µmol (K-562): 19.4% | viability at 0.391 µmol (K-562): 60% | cytotoxicity at 0.391 µmol (K-562): 40% | viability at 0.781 µmol (K-562): 33.6% | cytotoxicity at 0.781 µmol (K-562): 66.4% | viability at 1.563 µmol (K-562): 22.3% | cytotoxicity at 1.563 µmol (K-562): 77.7% | viability at 3.125 µmol (K-562): 11% | cytotoxicity at 3.125 µmol (K-562): 89% | viability at 6.25 µmol (K-562): 8.29% | cytotoxicity at 6.25 µmol (K-562): 91.7% | viability at 12.5 µmol (K-562): 7.43% | cytotoxicity at 12.5 µmol (K-562): 92.6% | viability at 25 µmol (K-562): 7.02% | cytotoxicity at 25 µmol (K-562): 93% | IC50 (K-562): 538.8 ± 1.7 nM | Caspase-3 ± SE (caspase-3): 1.77 ± 0.08 ng/mL | Caspase-3 ± SE (caspase-3; listed as N2): 1.77 ng/mL | caspase-3 expression level, fold increase (caspase-3): 3.85 fold | Caspase-9 ± SE (caspase-9): 70.03 ± 0.47 ng/L | Caspase-9 ± SE (caspase-9; listed as N2): 70.03 ng/L | caspase-9 expression level, fold increase (caspase-9): 6.37 fold | TNF-alpha ±SE (TNF-alpha; HepG-2, at IC50 concentrations): 16.86 ± 2.39 ng/L | TNF-alpha ±SE (TNF-alpha; raw data, HepG2): 23.47 ng/L | IL-6R ± SE (IL-6R): 11.87 ± 0.80 ng/L | IL-6 ±SE (IL-6R): 24.59 ng/L

O=C(Cn1cnc2cc(Cl)ccc2c1=O)Nc1ccc(F)c(Cl)c1 [8e, N-(3-Chloro-4-fluorophenyl)-2-(7-chloro-4-oxoquinazolin-3(4H)-yl)acetamide]
viability at 0.195 µmol (MCF-7): 81.5% | cytotoxicity at 0.195 µmol (MCF-7): 18.5% | viability at 0.391 µmol (MCF-7): 62.1% | cytotoxicity at 0.391 µmol (MCF-7): 37.9% | viability at 0.781 µmol (MCF-7): 32.7% | cytotoxicity at 0.781 µmol (MCF-7): 67.3% | viability at 1.563 µmol (MCF-7): 19% | cytotoxicity at 1.563 µmol (MCF-7): 81% | viability at 3.125 µmol (MCF-7): 12.8% | cytotoxicity at 3.125 µmol (MCF-7): 87.2% | viability at 6.25 µmol (MCF-7): 9.01% | cytotoxicity at 6.25 µmol (MCF-7): 91% | viability at 12.5 µmol (MCF-7): 7.65% | cytotoxicity at 12.5 µmol (MCF-7): 92.3% | viability at 25 µmol (MCF-7): 6.46% | cytotoxicity at 25 µmol (MCF-7): 93.5% | IC50 (MCF-7): 552.3 ± 1.7 nM | viability at 0.195 µg/mL (HepG-2): 93.8% | cytotoxicity at 0.195 µg/mL (HepG-2): 6.15% | viability at 0.391 µg/mL (HepG-2): 75.6% | cytotoxicity at 0.391 µg/mL (HepG-2): 24.4% | viability at 0.781 µg/mL (HepG-2): 62.3% | cytotoxicity at 0.781 µg/mL (HepG-2): 37.7% | viability at 1.563 µg/mL (HepG-2): 47.6% | cytotoxicity at 1.563 µg/mL (HepG-2): 52.4% | viability at 3.125 µg/mL (HepG-2): 23.1% | cytotoxicity at 3.125 µg/mL (HepG-2): 76.9% | viability at 6.25 µg/mL (HepG-2): 11.9% | cytotoxicity at 6.25 µg/mL (HepG-2): 88.1% | viability at 12.5 µg/mL (HepG-2): 9.45% | cytotoxicity at 12.5 µg/mL (HepG-2): 90.5% | viability at 25 µg/mL (HepG-2): 7.22% | cytotoxicity at 25 µg/mL (HepG-2): 92.8% | IC50 (HepG-2): 1436 ± 7.3 nM | viability at 0.195 µmol (K-562): 52.8% | cytotoxicity at 0.195 µmol (K-562): 47.2% | viability at 0.391 µmol (K-562): 45.2% | cytotoxicity at 0.391 µmol (K-562): 54.8% | viability at 0.781 µmol (K-562): 31.6% | cytotoxicity at 0.781 µmol (K-562): 68.4% | viability at 1.563 µmol (K-562): 21.1% | cytotoxicity at 1.563 µmol (K-562): 78.9% | viability at 3.125 µmol (K-562): 10.3% | cytotoxicity at 3.125 µmol (K-562): 89.7% | viability at 6.25 µmol (K-562): 8.78% | cytotoxicity at 6.25 µmol (K-562): 91.2% | viability at 12.5 µmol (K-562): 7.43% | cytotoxicity at 12.5 µmol (K-562): 92.6% | viability at 25 µmol (K-562): 5.91% | cytotoxicity at 25 µmol (K-562): 94.1% | IC50 (K-562): 266.4 ± 1.7 nM | Caspase-3 ± SE (caspase-3): 1.54 ± 0.11 ng/mL | Caspase-3 ± SE (caspase-3; listed as R5): 1.54 ng/mL | caspase-3 expression level, fold increase (caspase-3): 3.35 fold | Caspase-9 ± SE (caspase-9): 48.44 ± 1.24 ng/L | Caspase-9 ± SE (caspase-9; listed as R5): 48.44 ng/L | caspase-9 expression level, fold increase (caspase-9): 4.4 fold | TNF-alpha ±SE (TNF-alpha; HepG-2, at IC50 concentrations): 32.07 ± 2.32 ng/L | TNF-alpha ±SE (TNF-alpha; raw data, HepG2): 27.34 ng/L | IL-6R ± SE (IL-6R): 11.93 ± 0.25 ng/L | IL-6R protein level (IL-6R; HepG-2, control 44.10%): 11.93 ng/L | IL-6 ±SE (IL-6R): 28.78 ng/L
